Laboratory results as given in EP4410284A1, “COMPOUND AND METHOD FOR THE TREATMENT OF ZELLWEGER SPECTRUM DISORDER” (Apteeus, priority 2023, dated 2024).
Where two headings read alike, the source gives them in different places.

What was measured:
PEX405 cells [1] = test: Catalase import immunofluorescence, high-content screening (% importing cells); format: cell-based, human; settings: PEX405 cells, 3 days
GM16513 cells [2] = test: as above; format: cell-based, human; settings: GM16513 cells, 3 days; for EC50 / Emax: Homo sapiens, 72 h, dose response with 6 concentrations; for EC50: read-out: EC50; for Emax: read-out: Max Efficacy (% Importing cells)
GM16513 cells [3] = format: cell-based; settings: 3 days, PI positive cells (dead cells)
PEX405 cells [4] = format: cell-based; settings: 3 days, PI positive cells (dead cells)

Compound	% Importing cells (PEX405 cells [1]; 1.3 µM)	% Importing cells (PEX405 cells [1]; 10 µM)	% Importing cells (GM16513 cells [2]; 1.3 µM)	% Importing cells (GM16513 cells [2]; 10 µM)	% PI+ cells (GM16513 cells [3]; 1.3 µM)	% PI+ cells (GM16513 cells [3]; 10 µM)	% PI+ cells (PEX405 cells [4]; 1.3 µM)	% PI+ cells (PEX405 cells [4]; 10 µM)	EC50 (GM16513 cells [2])	Emax (GM16513 cells [2])
COc1cc(C=CC(=O)O)cc(OC)c1O (stereo in doubt) [Sinapinic acid]	3%	3%	21%	18%	–	–	–	–	–	–
O=C(NO)c1cccc2ccccc12 [1-Naphthohydroxamic acid]	3%	2%	12%	13%	1%	1%	0%	0%	–	–
O=C(NO)c1cnc(NC2(c3ccccc3)CC2)nc1 [ACY-738]	5%	31%	31%	85%	1%	3%	1%	1%	–	–
O=C(NO)c1cnc(NC2(c3cccc(F)c3)CCCCC2)nc1 [ACY-775]	4%	9%	21%	47%	2%	2%	0%	1%	–	–
Nc1ccc(-c2cccs2)cc1NC(=O)c1ccc2nc(N3CCNCC3)ccc2c1 [ACY-957]	16%	13%	74%	0%	1%	38%	1%	55%	–	–
CC(C)(C)c1ccc(C(=O)Nc2ccc(C(=O)NO)cc2)cc1 [AES-350]	5%	10%	22%	45%	2%	5%	1%	1%	–	–
CC(=O)N[C@@H](CCCCN)C(=O)Nc1ccc2c(C)cc(=O)oc2c1 [Ac-Lys-AMC]	3%	1%	18%	14%	1%	1%	0%	0%	–	–
Nc1ccccc1NC(=O)c1cnccn1 [BG45]	4%	5%	15%	30%	1%	1%	1%	2%	–	–
Nc1ccccc1NC(=O)CCCCCCC(=O)Nc1ccccc1 [BML-210]	7%	19%	24%	73%	2%	3%	1%	1%	–	–
CC(=O)Nc1ccc(C(=O)Nc2ccc(F)cc2N)cc1 [BRD3308]	4%	5%	12%	16%	2%	2%	1%	1%	–	–
O=C(NO)c1cccc(C(=O)NCCc2ccccc2)c1 [BRD73954]	3%	4%	19%	23%	1%	1%	0%	1%	–	–
CCN1CCN(C(c2cccnc2)c2cc(Cl)c3cccnc3c2O)CC1 (centres unmarked) [BRD 4354]	4%	10%	21%	30%	1%	3%	0%	3%	–	–
CC(=O)Nc1ccc(C(=O)Nc2cc(-c3cccs3)ccc2N)cc1 [BRD-6929]	20%	38%	66%	88%	1%	3%	1%	1%	–	–
CCCCOc1ccc(CC(=O)NO)cc1 [Bufexamac]	4%	50%	26%	25%	2%	1%	1%	0%	–	–
CC(C)(C)OC(=O)Nc1ccc(-c2cc(C(=O)NCCCCCCC(=O)NO)no2)cc1 [CAY10603]	22%	11%	73%	85%	2%	31%	1%	35%	–	–
CCOC(=O)c1cnc(NC2(c3ccccc3)CC2)nc1 [CG347B]	4%	5%	25%	21%	1%	1%	1%	0%	–	–
O=C(NO)C(c1ccc(-c2ncc(C(F)(F)F)cn2)cc1)c1ccccc1F (centres unmarked) [CHDI-390576]	2%	0%	10%	4%	–	–	–	–	–	–
C#Cc1cccc(Nc2ncnc3cc(OC)c(OCCCCCCC(=O)NO)cc23)c1 [CUDC-101]	23%	49%	60%	90%	2%	23%	1%	44%	700 nM	100%
Cc1nn(C)cc1CN1CCC(c2ccc(C(=O)Nc3ccccc3N)cc2)CC1 [CXD101]	19%	4%	–	–	2%	7%	0%	8%	–	–
O=C(CCCCCCNC(=O)c1cnc(N(c2ccccc2)c2ccccc2Cl)nc1)NO [Citarinostat]	9%	53%	47%	90%	1%	4%	0%	2%	3200 nM	93%
Nc1ccccc1NC(=O)c1ccc(CCCC(=O)Nc2ccc([C@@H]3C[C@H]3N)cc2)cc1 [Corin]	17%	11%	59%	44%	5%	34%	2%	66%	–	–
Nc1[nH]c(=O)nc2c1ncn2[C@@H]1O[C@H](CO)[C@@H](O)[C@H]1O [Crotonoside]	3%	3%	20%	18%	1%	1%	0%	1%	–	–
Cc1ccc(C(=O)NCCCCCC(=O)Nc2ccccc2N)cc1 [RG2833]	–	–	–	–	1%	3%	–	–	–	–
Oxamflatin	33%	15%	99%	59%	–	–	–	–	–	–
